{
  "source": "patent US20250059201A1",
  "about": "“CAMPTOTHECIN COMPOUND AND CONJUGATE THEREOF” (priority 2021, published 2025)",
  "experiment_in_all_cases": "Proliferation-inhibiting effect on tumor cells (SRB or MTT assay)",
  "assay_type_in_all_cases": "cell-based",
  "key": {"BT-474": {"tested_on": "BT-474", "details": "Homo sapiens, BT-474, 144 h", "protocol": "(§1) For cells growing by adherence, SRB assay was used to detect effect of antibody-drug conjugates or camptothecins on the proliferation of tumor cells in vitro cultured. A certain number of cells in exponential growth phase were inoculated in 96-well cell culture plates, and when the cells grew by adherence overnight, antibody drug conjugates or camptothecins of different concentrations were added into the cells. 144 hours later, the cells were fixed with trichloroacetic acid, and then stained with SRB (prepared in 1% glacial acetic acid at a concentration of 4 mg/mL). 10 mM Tris solution was added into each well to solubilize the bound SRB. OD values at 510 nm were read on a microplate reader.\n(§2) Inhibition (%)=([…] of control well−OD value of dosed well)/OD value of control well×100%\n(§3) For cells growing in suspension, MTT assay was used to detect effect of antibody-drug conjugates or camptothecins on the proliferation of tumor cells in vitro cultured. A certain number of cells in exponential growth phase were inoculated in 96-well cell culture plates, and when the cells grew in suspension overnight, antibody-drug conjugates or camptothecins of different concentrations were added into the cells. 144 hours later, MTT was added to each well of the plates, and the incubation was continued for 4 hours at 37° C. in a 5% CO2 saturated humidity incubator. Next, 100 μL of SDS-isobutanol-HCl solution was added into each well of the plates, and OD values at 570 nm and 690 nm were read on a microplate reader.\n(§4) Half maximal inhibitory concentration (IC50) was calculated from the inhibition (%) at those different concentrations using the software Graphpad Prism 8.0. The experiment was repeated once and the data was expressed as mean±SD."}, "MDA-MB-231/TROP2": {"tested_on": "MDA-MB-231/TROP2", "details": "Homo sapiens, MDA-MB-231, 144 h", "protocol": "as §1, §2, §3, §4"}, "MDA-MB-231": {"tested_on": "MDA-MB-231", "details": "Homo sapiens, MDA-MB-231, 144 h", "protocol": "as §1, §2, §3, §4"}, "NCI-N87": {"tested_on": "NCI-N87", "details": "Homo sapiens, NCI-N87, 144 h", "protocol": "as §1, §2, §3, §4"}, "[1]": {"details": "read-out: IC50 (nM) 1st experiment"}, "[2]": {"details": "read-out: IC50 (nM) 2nd experiment"}},
  "note": "Like-named read-outs stand apart in the source and are kept apart here.",
  "data": [
    {"molecule": "CC[C@@]1(O)C(=O)OCc2c1cc1n(c2=O)Cc2c-1nc1ccc(N)c3c1c2C(F)(F)CC3", "note": "[Compound 3]", "values": [
      {"measurement": "IC50", "setting": "BT-474; [1]", "result": 2.3, "unit": "nM"},
      {"measurement": "IC50", "setting": "BT-474; [2]", "result": 0.5, "unit": "nM"},
      {"measurement": "IC50", "setting": "BT-474; read-out: IC50 (nM) Mean ± SD", "result": "1.43 ± 1.25", "unit": "nM"},
      {"measurement": "IC50", "setting": "MDA-MB-231/TROP2; [1]", "result": 0.1, "unit": "nM"},
      {"measurement": "IC50", "setting": "MDA-MB-231/TROP2; [2]", "result": 0.1, "unit": "nM"},
      {"measurement": "IC50", "setting": "MDA-MB-231/TROP2; read-out: IC50 (nM) Mean ± SD", "result": "0.06 ± 0.01", "unit": "nM"},
      {"measurement": "IC50", "setting": "MDA-MB-231; [1]", "result": 0.8, "unit": "nM"},
      {"measurement": "IC50", "setting": "MDA-MB-231; [2]", "result": 0.8, "unit": "nM"},
      {"measurement": "IC50", "setting": "MDA-MB-231; read-out: IC50 (nM) Mean ± SD", "result": "0.69 ± 0.15", "unit": "nM"},
      {"measurement": "IC50", "setting": "NCI-N87; [1]", "result": 0.4, "unit": "nM"},
      {"measurement": "IC50", "setting": "NCI-N87; [2]", "result": 0.5, "unit": "nM"},
      {"measurement": "IC50", "setting": "NCI-N87; read-out: IC50 (nM) Mean ± SD", "result": "0.47 ± 0.07", "unit": "nM"}
    ]}
  ]
}
